Measurements reported in patent US20250353816A1, “QUINOLINES AS MODULATORS OF POLRMT” (Pretzel Therapeutics, Inc., priority 2024, published 2025).

Biological target: POLRMT (Homo sapiens (Human), UniProt O00411)
Assay: homogeneous TR-FRET assay of mitochondrial transcription (inhibition of POLRMT)
Format: biochemical
Conditions: 7.5 nM POLRMT, 15 nM TFB2M, 30 nM TFAM, 60 minutes at 37° C.
Description: The inhibitory activity of the compounds of the present invention against POLRMT were determined by assays based on Bergbrede, T., et al., “An adaptable high-throughput technology enabling the identification of specific transcription modulators,” SLAC Discov., 22, 378-386 (2017).
The ability of some compounds of the present invention to inhibit POLRMT were determined in a homogeneous TR-FRET Assay using high-throughput screening in a 384-well plate format. This method is used to monitor the activity of mitochondrial transcription through measurement of its product, a 407 bp long RNA transcript. Detection of the product is facilitated by hybridization of two DNA-oligonucleotide probes to specific and adjacent sequences within the RNA product sequence. Upon annealing of the probes, two fluorophores are coupled directly to an acceptor nucleotide probe (ATTO647, 5′), or introduced via a coupled streptavidin with a biotinylated donor nucleotide probe (Europium cryptate) that is brought into sufficient proximity to serve as a fluorescence-donor-acceptor pair. Thus, a FRET signal at 665 nm is generated upon excitation at 340 nm.
Proteins used as transcription factors (POLRMT: NP_005026.3, TFAM: NP_003192.1, TFB2M: NP_071761.1) are diluted from their stocks to working concentrations of 1 μM, 20 μM and 4 μM respectively, in a dilution buffer containing 20 mM Tris-HCl (pH 8.0), 200 mM NaCl, 10% (v/v) glycerol, 1 mM Dithiothreitol (DTT), 0.5 mM EDTA.
DNA template is a pUC18 plasmid with the mitochondrial light strand promotor sequence (1-477) cloned between HindIII and BamHI sites. The DNA template is restriction linearized proximal to the promotor 3′-end (pUC-LSP).
The reaction mixture (10 uL) containing 7.5 nM POLRMT, 15 nM of TFB2M, 30 nM of TFAM, 0.5 nM of DNA template and 500 μM nucleotide triphosphate mix (NTPs) in a reaction buffer (containing 10 mM Tris-HCl (pH 7.5), 10 mM MgCl2, 40 mM NaCl, 10 mM DTT, 0.005% (w/v) Tween-20, 160 units/ml Rnase inhibitor and 0.1 mg/mL BSA) are dispensed to compounds in microplates, using a Thermo Multidrop® dispenser, and incubated at 37° C. in a VWR INCU-Line incubator for 60 minutes after mixing. No nucleotide triphosphate mix is added to negative control samples. Microplates with compounds to be tested in the assay are prepared from 10 mM compound stocks in 100% DMSO, equal amounts of DMSO without any compound are added to positive control and negative control samples.
During the incubation, a mix of the detection reagents is prepared in a buffer such that the enzymatic reaction is terminated due to chelating of Mg-ions and increased ionic strength, containing 50 mM Tris-HCl (pH 7.5), 700 mM NaCl, 20 mM EDTA, and 0.01% (w/v) Tween-20. Europium-streptavidin is pre-incubated with a 200-fold molar excess of a random sequence oligonucleotide to block unspecific binding of oligo, for two hours at ambient temperature in the dark. Afterwards, the blocked Europium-streptavidin is kept on ice until use.
At the end of the enzymatic reaction time, 5 μL detection oligo mix in the detection buffer is added, and assay plates are mixed and kept at ambient temperature for one hour, protected from light. The concentration of the Acceptor nucleotide oligo (e.g., ATTO647N-5′-[…]-3′ (SEQ ID NO: 1)) and Donor nucleotide oligo (e.g., bio-5′-AACACATCTCT(-bio)GCCAAACCCCA-bio-3′ (SEQ ID NO: 2)) in each assay well is 1 nM, and 3 nM, respectively.
After incubation with oligo mix, 5 μL of pre-blocked Europium-streptavidin reagent is dispensed to each assay well, assay plates are again mixed and kept at ambient temperature for one hour, protected from light.
The generated signal is measured with BMG Pherastar microtiter plate reader with a TRF light unit, using excitation at 340 nm, an integration time of 200 μs, and a delay time of […], before detection at 620 nm and 665 nm. The ratio of donor- and acceptor-fluorescence is used as a measure of the generated transcript product (i.e. enzymatic activity).

Sequence of POLRMT (O00411 42-1230): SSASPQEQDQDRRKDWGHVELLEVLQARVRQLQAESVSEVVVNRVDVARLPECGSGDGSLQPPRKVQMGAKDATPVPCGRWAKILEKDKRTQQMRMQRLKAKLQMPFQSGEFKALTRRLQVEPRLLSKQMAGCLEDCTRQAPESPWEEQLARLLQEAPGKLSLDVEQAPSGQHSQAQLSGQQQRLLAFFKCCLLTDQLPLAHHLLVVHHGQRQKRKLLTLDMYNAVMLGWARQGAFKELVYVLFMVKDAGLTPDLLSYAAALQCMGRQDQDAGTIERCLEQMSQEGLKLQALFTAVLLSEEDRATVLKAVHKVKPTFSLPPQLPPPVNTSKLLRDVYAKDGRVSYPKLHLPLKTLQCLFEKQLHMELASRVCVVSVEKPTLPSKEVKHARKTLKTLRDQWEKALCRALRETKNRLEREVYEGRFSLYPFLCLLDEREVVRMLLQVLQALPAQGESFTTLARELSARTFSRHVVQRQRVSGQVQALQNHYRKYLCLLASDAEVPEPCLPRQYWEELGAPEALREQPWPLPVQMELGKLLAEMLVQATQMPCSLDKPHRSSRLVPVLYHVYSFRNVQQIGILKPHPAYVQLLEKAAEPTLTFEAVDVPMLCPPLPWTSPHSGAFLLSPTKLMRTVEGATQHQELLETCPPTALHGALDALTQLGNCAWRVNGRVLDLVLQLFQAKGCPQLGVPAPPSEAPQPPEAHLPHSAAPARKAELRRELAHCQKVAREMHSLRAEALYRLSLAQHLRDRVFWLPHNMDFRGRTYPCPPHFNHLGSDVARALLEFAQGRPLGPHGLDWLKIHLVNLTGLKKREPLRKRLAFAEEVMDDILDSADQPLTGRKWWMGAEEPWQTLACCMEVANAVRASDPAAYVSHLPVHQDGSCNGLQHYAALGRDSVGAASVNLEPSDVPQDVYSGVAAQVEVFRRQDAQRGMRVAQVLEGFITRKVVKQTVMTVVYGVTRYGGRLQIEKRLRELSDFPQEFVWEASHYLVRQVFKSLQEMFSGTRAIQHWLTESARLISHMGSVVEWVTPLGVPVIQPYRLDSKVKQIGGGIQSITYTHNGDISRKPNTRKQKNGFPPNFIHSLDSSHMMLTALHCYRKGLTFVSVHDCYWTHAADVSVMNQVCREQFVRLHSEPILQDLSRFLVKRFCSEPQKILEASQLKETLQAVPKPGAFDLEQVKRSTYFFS

IC50 [µM]	Compound
4	Cc1ccccc1-c1ccnc2cc(NC(C)C(=O)N3CCCCC3)ccc12 (stereo not drawn) [Example 45, 1-(piperidin-1-yl)-2-((4-(o-tolyl)quinolin-7-yl)amino)propan-1-one]
> 100	Cc1ccccc1-c1ccnc2cc(CN(C)S(=O)(=O)c3ccccc3)ccc12 [Example 23, N-methyl-N-((4-(o-tolyl)quinolin-7-yl)methyl)benzenesulfonamide]
> 100	CNC(=O)COC(C)c1ccc2c(-c3ccccc3C)ccnc2c1 (stereo not drawn) [Example 57, N-methyl-2-(1-(4-(o-tolyl)quinolin-7-yl)ethoxy)acetamide]
91	Cc1ccccc1-c1ccnc2cc(CC(=O)NCC3CC3)ccc12 [Example 41, N-(cyclopropylmethyl)-2-(4-(o-tolyl)quinolin-7-yl)acetamide]
68	Cc1ccccc1-c1ccnc2cc(CNS(=O)(=O)c3ccccc3)ccc12 [Example 14, N-((4-(o-tolyl)quinolin-7-yl)methyl)benzenesulfonamide]
6	COCCc1ccc2c(-c3ccccc3C)ccnc2c1 [Example 31, 7-(2-methoxyethyl)-4-(o-tolyl)quinoline]
8	COC(C)c1ccc2c(-c3ccccc3C)ccnc2c1 (stereo not drawn) [Example 27, 7-(1-methoxyethyl)-4-(o-tolyl)quinoline]
26	Cc1ccccc1-c1ccnc2cc(NC(C)C(=O)N(C)C)ccc12 (stereo not drawn) [Example 47, N,N-dimethyl-2-((4-(o-tolyl)quinolin-7-yl)amino)propanamide]
> 100	Cc1ccccc1-c1ccnc2cc(C(C)OCC(=O)N(C)C)ccc12 (stereo not drawn) [Example 55, N,N-dimethyl-2-(1-(4-(o-tolyl)quinolin-7-yl)ethoxy)acetamide]
36	Cc1ccccc1-c1ccnc2cc(C(C)O)ccc12 (stereo not drawn) [Example 18, 1-(4-(o-tolyl)quinolin-7-yl)ethan-1-ol]
10	Cc1ccccc1-c1ccnc2cc(CN(C)C(=O)C3CCCC3)ccc12 [Example 24, N-methyl-N-((4-(o-tolyl)quinolin-7-yl)methyl)cyclopentanecarboxamide]
97	Cc1ccccc1-c1ccnc2cc(CC(=O)O)ccc12 [Example 29, 2-(4-(o-tolyl)quinolin-7-yl)acetic acid]
> 100	CNC(=O)Cc1ccc2c(-c3ccccc3C)ccnc2c1 [Example 44, N-methyl-2-(4-(o-tolyl)quinolin-7-yl)acetamide]
26	CNC(=O)c1ccc2c(-c3ccccc3C)ccnc2c1 [Example 3, N-methyl-4-(o-tolyl)quinoline-7-carboxamide]
> 100	CC(=O)N1CCN(C(=O)Cc2ccc3c(-c4ccccc4C)ccnc3c2)CC1 [Example 40, 1-(4-acetylpiperazin-1-yl)-2-(4-(o-tolyl)quinolin-7-yl)ethan-1-one]
> 100	Cc1ccccc1-c1ccnc2cc(CC(=O)N(C)C)ccc12 [Example 43, N,N-dimethyl-2-(4-(o-tolyl)quinolin-7-yl)acetamide]
> 100	CC(=O)N1CCN(Cc2ccc3c(-c4ccccc4C)ccnc3c2)CC1 [Example 21, 1-(4-((4-(o-tolyl)quinolin-7-yl)methyl)piperazin-1-yl)ethan-1-one]
> 100	Cc1ccccc1-c1ccnc2cc(CN3CCCC3)ccc12 [Example 26, 7-(pyrrolidin-1-ylmethyl)-4-(o-tolyl)quinoline]
> 100	Cc1ccccc1-c1ccnc2cc(C(=O)N3CCOCC3)ccc12 [Example 7, morpholino-[4-(o-tolyl)-7-quinolyl]methanone]
2	Cc1ccccc1-c1ccnc2cc(CC(C)C(=O)N3CCCCC3)ccc12 (single isomer, unassigned) [Example 34, 2-methyl-1-(piperidin-1-yl)-3-(4-(o-tolyl)quinolin-7-yl)propan-1-one]
> 100	Cc1ccccc1-c1ccnc2cc(NC(C)C(=O)N(C)C)ccc12 (single isomer, unassigned) [Example 48, N,N-dimethyl-2-((4-(o-tolyl)quinolin-7-yl)amino)propanamide]
